Article PMC9570898, “Comparing Variants of the Cell-Penetrating Peptide sC18 to Design Peptide-Drug Conjugates” (Molecules, 2022)
No end group written: not given here.

Assays:
[1] = system: HEK293 cells; assay: Cytotoxicity (resazurin) assay in HEK293 cells; format: cell-based, human; details: 24 h
Method: For cell viability assay, cells were (15,000 HeLa, 17,000 MCF-7 and 12,000 HFF-1 cells per well) seeded onto a 96-well plate and grown to 80–90% confluency. Cells were incubated with several peptide concentrations in a serum-free growth medium for 24 h under standard growth conditions. For the positive control, cells were treated with 70% EtOH for 7 min. After washing with DPBS, resazurin solution (10% in serum-free media, v/v) was incubated with the cells for 1 h under standard growth conditions. The cell viability was determined relative to untreated cells by measurement of the resorufin product at 595 nm (λex = 550 nm) on a Tecan infinite M200 plate reader (Tecan Group AG, Männedorf, Switzerland).
Cells were cultured and incubated at pH 7.4 for 24 h with different concentrations of peptide solutions. Untreated cells served as negative control; cells treated with 70% ethanol as positive control. Values from the positive control were subtracted from all data, and the untreated cells were set to 100%; assays were performed with n = 3 in triplicate.

[2] = system: HEK293 cells; assay: Cellular uptake by flow cytometry in HEK293 cells; format: cell-based, human; details: 1 and 10 µM CF-labeled peptide, 30 min, 37 °C, serum-free medium, triplicate n = 3
Method: Monolayer cellular uptake was quantified using flow cytometry. Cells were seeded onto a 24-well plate (HeLa: 90,000, HEK293: 100,000 and MCF-7 130,000 cells per well) and grown to 80–90% confluency. Then, cells were incubated with the labeled peptides/conjugates in a serum-free medium at 37 °C for various incubation times, and subsequently washed twice with PBS and detached with indicator-free trypsin resuspended in an indicator-free serum-containing medium. The cell suspension was transferred into a 96-well FACS plate and fluorescence was then measured by a Guava easyCyte flow cytometer (Merck, Darmstadt, Germany).The blue laser was used for all measurements, FSC (1137–1538), SSC (3020–4086), Grn-B (647–875) and Red-B (694–939). Cellular autofluorescence of untreated control cells was subtracted.

[3] = Peptide interaction with anionic giant unilamellar vesicles; details: 1 µM CF-labeled peptide, 30 min, room temperature, fluorescence microscopy, Oyster405 dye outflow
Method: A thin agarose layer is necessary to build GUVs. Therefore, 1% super low melting agarose was melted in deionized water by heating up in a microwave. Afterward, 200 µL were coated on a clean slide and dried at 50 °C for 30 min on a heating plate; 10 µL of respective lipid solution was added onto the agarose layer and subsequently distributed and dried for 1 h using an exicator under vacuum to get rid of the chloroform. For staining the lipid layer, 0.2 mol % Atto550 was added. Afterward, a sealing ring was added around the pink lipid film. Lipids were hydrated with dextran buffer (10 mM HEPES buffer (pH 7.4), 50 mM KCl, 50 mM NaCl and 1 mg/mL Dextran) containing 3 µL Oyster405 (Luminaris GmbH, Münster, Germany) encapsulating the blue dye. Slides were incubated for 2 h at RT. […] For fluorescence microscopy analysis, lipids were transferred into an eight-well Ibidi® plate; 40 µL of respective GUV solution was mixed with 1 µM peptide solutions and filled up to 100 µL with dextran buffer. […] Afterward, GUVs were analyzed using a BZ-X800E microscope (Keyence, Osaka, Japan) followed by image processing with ImageJ.
Figure 4 Peptide interaction with […] (GUVs) composed of DOPC/DOPE/DOPG (40:30:30); 1 µM solutions of sC18 variants were incubated with GUVs for 30 min and inspected using a fluorescence microscope (Keyence). […]

In the case of RLRKLLRKFLRK-NH2 [sC18*^R,L], the “concentration at which toxic effect started” value [1] is reported as 50 µM, the “cellular uptake” value [2] is reported as “highly significant and enhanced internalization” and the “interaction with anionic GUVs” value [3] is reported as “strongest accumulation leading to membrane disruption events and complete dye outflow from the vesicles”.
